Reference: article PMC11340408 (RSC Advances, 2024)

How the values were obtained:
Type in all cases: cell-based, human
MCF-7 cell line = assay: MTT assay, breast cancer MCF-7 cell line; conditions: for IC50: Homo sapiens, MCF7, 48 h, read-out: IC50 against MCF-7; for Activity against MCF-7 compared to MTX (in words): MTT assay; for times greater efficacy than MTX against MCF-7: ratio to MTX IC50
A-375 cell line = assay: MTT assay, melanoma A-375 cell line; conditions: for Viability of A375 (in words): 15.62–500 μM, Fig. 6A; for IC50: Homo sapiens, A-375, 48 h, read-out: IC50 against A375
HEK-293 cell line = assay: MTT assay, toxicity on normal cell line HEK-293; conditions: for Viability of HEK-293 (in words): 15.62–500 μM; for IC50: Homo sapiens, HEK293, 48 h, read-out: IC50 against HEK-293

| Compound | IC50 (MCF-7 cell line) | IC50 (A-375 cell line) | Viability of A375 (in words) (A-375 cell line) | Viability of HEK-293 (in words) (HEK-293 cell line; Fig. 6C) | IC50 (HEK-293 cell line) | Toxicity to HEK-293 compared to MTX (in words) (HEK-293 cell line; MTT assay) | Activity against MCF-7 compared to MTX (in words) (MCF-7 cell line) | times greater efficacy than MTX against MCF-7 (MCF-7 cell line) | Toxicity against HEK-293 at 500 μM (in words) (HEK-293 cell line; 500 μM, Fig. 6C) | Viability of MCF-7 (in words) (MCF-7 cell line; 15.62–500 μM, Fig. 6B) | Toxicity to HEK-293 cells (in words) (HEK-293 cell line; MTT assay, normal cell line) |
| --- | --- | --- | --- | --- | --- | --- | --- | --- | --- | --- | --- |
| Cn1c(=O)c2c(nc(Oc3ccc(C(=O)/C=C/c4ccccc4Cl)cc3)n2C)n(C)c1=O [Compound 4i, (E)-8-(4-(3-(2-Chlorophenyl)acryloyl)phenoxy)-1,3,7-trimethyl-1H-purine-2,6(3H,7H)-dione] | 108 ± 3.1 µM | 111 ± 1.9 µM | lowest viability values | more toxic | 162 ± 4.2 µM | more toxic | – | – | – | – | – |
| COc1ccc(/C=C/C(=O)c2ccc(Oc3nc4c(c(=O)n(C)c(=O)n4C)n3C)cc2)c(OC)c1 [Compound 4g, (E)-8-(4-(3-(2,4-Dimethoxyphenyl)acryloyl)phenoxy)-1,3,7-trimethyl-1H-purine-2,6(3H,7H)-dione] | > 500 µM | 425 ± 3.5 µM | – | – | > 500 µM | – | – | – | – | – | – |
| Cn1c(=O)c2c(nc(Oc3ccc(C(=O)/C=C/c4ccc(Cl)cc4)cc3)n2C)n(C)c1=O [Compound 4e, (E)-8-(4-(3-(4-Chlorophenyl)acryloyl)phenoxy)-1,3,7-trimethyl-1H-purine-2,6(3H,7H)-dione] | 35 ± 2.2 µM | 273 ± 3.4 µM | – | – | 386 ± 3.2 µM | – | activities surpassing that of MTX | ~10 times | – | – | – |
| CN(Cc1cnc2nc(N)nc(N)c2n1)c1ccc(C(=O)N[C@@H](CCC(=O)O)C(=O)O)cc1 [MTX, methotrexate, reference compound] | 343 ± 3.6 µM | 418 ± 2 µM | – | – | 199 ± 2.4 µM | – | – | – | highest toxicity | – | – |
| Cc1ccc(/C=C/C(=O)c2ccc(Oc3nc4c(c(=O)n(C)c(=O)n4C)n3C)cc2)cc1 [Compound 4a, (E)-1,3,7-Trimethyl-8-(4-(3-p-tolylacryloyl)phenoxy)-1H-purine-2,6(3H,7H)-dione] | 38 ± 3.7 µM | 279 ± 2.3 µM | – | – | 407 ± 3.1 µM | – | activities surpassing that of MTX | – | – | – | – |
| Cn1c(=O)c2c(nc(Oc3ccc(C(=O)/C=C/c4cccc([N+](=O)[O-])c4)cc3)n2C)n(C)c1=O [Compound 4f, (E)-1,3,7-Trimethyl-8-(4-(3-(3-nitrophenyl)acryloyl)phenoxy)-1H-purine-2,6(3H,7H)-dione] | > 500 µM | > 500 µM | – | – | > 500 µM | – | – | – | – | – | – |
| COc1ccc(/C=C/C(=O)c2ccc(Oc3nc4c(c(=O)n(C)c(=O)n4C)n3C)cc2)cc1 [Compound 4h, (E)-8-(4-(3-(4-Methoxyphenyl)acryloyl)phenoxy)-1,3,7-trimethyl-1H-purine-2,6(3H,7H)-dione] | > 500 µM | > 500 µM | – | – | > 500 µM | – | – | – | – | – | – |
| Cn1c(=O)c2c(nc(Oc3ccc(C(=O)/C=C/c4ccccc4)cc3)n2C)n(C)c1=O [Compound 4d, (E)-8-(4-Cinnamoylphenoxy)-1,3,7-trimethyl-1H-purine-2,6(3H,7H) dione] | 18 ± 1.9 µM | 157 ± 4.2 µM | – | – | 220 ± 3.4 µM | – | activities surpassing that of MTX | ~19 times | – | – | – |
| Cn1c(=O)c2c(nc(Oc3ccc(C(=O)/C=C/c4c(Cl)cccc4Cl)cc3)n2C)n(C)c1=O [Compound 4j, (E)-8-(4-(3-(2,6-Dichlorophenyl)acryloyl)phenoxy)-1,3,7-trimethyl-1H-purine-2,6(3H,7H)-dione] | 181 ± 3.1 µM | 200 ± 4.3 µM | – | – | 214 ± 4.3 µM | – | – | – | – | – | – |
| Cn1c(=O)c2c(nc(Oc3ccc(C(=O)/C=C/c4ccc(Cl)cc4Cl)cc3)n2C)n(C)c1=O [Compound 4b, (E)-8-(4-(3-(2,4-Dichlorophenyl)acryloyl)phenoxy)-1,3,7-trimethyl-1H-purine-2,6(3H,7H)-dione] | 230 ± 3.2 µM | 325 ± 3.1 µM | – | – | 347 ± 4.2 µM | – | – | – | – | – | – |
| COc1ccccc1/C=C/C(=O)c1ccc(Oc2nc3c(c(=O)n(C)c(=O)n3C)n2C)cc1 [Compound 4c, (E)-8-(4-(3-(2-Methoxyphenyl)acryloyl)phenoxy)-1,3,7-trimethyl-1H-purine-2,6(3H,7H)-dione] | 269 ± 4.5 µM | 325 ± 3.8 µM | – | – | 451 ± 2.4 µM | – | – | – | – | – | – |
| COC(=O)c1ccc(/C=C/C(=O)c2ccc(Oc3nc4c(c(=O)n(C)c(=O)n4C)n3C)cc2)cc1 [Compound 4k, (E)-Methyl 4-(3-oxo-3-(4-(1,3,7-trimethyl-2,6-dioxo-2,3,6,7-tetrahydro-1H-purin-8-yloxy)phenyl)prop-1-enyl)benzoate] | 34 ± 3.5 µM | 92 ± 3.2 µM | lowest viability values | highest toxicity and lowest viability | 99 ± 3 µM | more toxic | activities surpassing that of MTX | ~10 times | – | lowest viability rate | most toxic |

Further lines, with some results ahead:

| IC50 (MCF-7 cell line) | IC50 (A-375 cell line) | Compound | Viability of A375 (in words) (A-375 cell line) | Viability of HEK-293 (in words) (HEK-293 cell line; Fig. 6C) | IC50 (HEK-293 cell line) | Toxicity to HEK-293 compared to MTX (in words) (HEK-293 cell line; MTT assay) | Activity against MCF-7 compared to MTX (in words) (MCF-7 cell line) | times greater efficacy than MTX against MCF-7 (MCF-7 cell line) | Toxicity against HEK-293 at 500 μM (in words) (HEK-293 cell line; 500 μM, Fig. 6C) | Viability of MCF-7 (in words) (MCF-7 cell line; 15.62–500 μM, Fig. 6B) | Toxicity to HEK-293 cells (in words) (HEK-293 cell line; MTT assay, normal cell line) |
| --- | --- | --- | --- | --- | --- | --- | --- | --- | --- | --- | --- |
| 223 ± 3.7 µM | 275 ± 3.7 µM | Cn1c(=O)c2c(nc(Oc3ccc(/C=C/C(=O)c4ccc([N+](=O)[O-])cc4)cc3)n2C)n(C)c1=O [Compound 5b, (E)-1,3,7-Trimethyl-8-(4-(3-(4-nitrophenyl)-3-oxoprop-1-enyl)phenoxy)-1H-purine-2,6(3H,7H)-dione] | – | – | 419 ± 4.6 µM | – | – | – | – | – | – |
| > 500 µM | > 500 µM | Cc1ccc(C(=O)/C=C/c2ccc(Oc3nc4c(c(=O)n(C)c(=O)n4C)n3C)cc2)cc1 [Compound 5d, (E)-1,3,7-Trimethyl-8-(4-(3-oxo-3-p-tolylprop-1-enyl)phenoxy)-1H-purine-2,6(3H,7H)-dione] | – | – | > 500 µM | – | – | – | – | – | – |
| 249 ± 3.2 µM | 249 ± 3.6 µM | COc1ccc(C(=O)/C=C/c2ccc(Oc3nc4c(c(=O)n(C)c(=O)n4C)n3C)cc2)cc1 [Compound 5a, (E)-8-(4-(3-(4-Methoxyphenyl)-3-oxoprop-1-enyl)phenoxy)-1,3,7-trimethyl-1H-purine-2,6(3H,7H)-dione] | – | – | > 500 µM | – | – | – | – | – | – |
| 130 ± 3.4 µM | 368 ± 3.1 µM | Cn1c(=O)c2c(nc(Oc3ccc(/C=C/C(=O)c4ccc(Cl)cc4)cc3)n2C)n(C)c1=O [Compound 5f, (E)-8-(4-(3-(4-Chlorophenyl)-3-oxoprop-1-enyl)phenoxy)-1,3,7-trimethyl-1H-purine-2,6(3H,7H)-dione] | – | more toxic | 240 ± 3.7 µM | – | – | – | – | – | – |
| 333 ± 2.5 µM | > 500 µM | Cn1c(=O)c2c(nc(Oc3ccc(/C=C/C(=O)c4ccc5ccccc5c4)cc3)n2C)n(C)c1=O [Compound 5e, (E)-1,3,7-Trimethyl-8-(4-(3-(naphthalen-2-yl)-3-oxoprop-1-enyl)phenoxy)-1H-purine-2,6(3H,7H)-dione] | – | – | > 500 µM | – | – | – | – | – | – |
| > 500 µM | > 500 µM | Cn1c(=O)c2c(nc(Oc3ccc(/C=C/C(=O)c4cccc([N+](=O)[O-])c4)cc3)n2C)n(C)c1=O [Compound 5c, (E)-1,3,7-Trimethyl-8-(4-(3-(3-nitrophenyl)-3-oxoprop-1-enyl)phenoxy)-1H-purine-2,6(3H,7H)-dione] | – | – | > 500 µM | – | – | – | – | – | – |
